The values that follow come from ChEMBL document CHEMBL2040769, “Lipase-catalyzed preparation of chromomycin A₃ analogues and biological evaluation for anticancer activity” (Bioorg Med Chem Lett, 2012).

One test concerns A549. Kind of test: Cytotoxicity against human A549 cells. The format is functional, cell-based.
Test [1] relates to COLO 205. Description: Cytotoxicity against human COLO205 cells relative to chromomycin A3. The format is functional. The settings on record: pooled result: one value given for 4 cell lines, strains, targets or settings.
Test [2] deals with A2780. Kind of test: Ratio of IC50 for chromomycin to compound for human A2780 cells. The format is functional.
The next test relates to BXPC-3. Description: Cytotoxicity against human BxPC3 cells. The format is functional, cell-based.
Test [3] concerns A2780. Description: Cytotoxicity against human A2780 cells. The format is functional, cell-based.
The test system of test [4] is COLO 205. Description: Cytotoxicity against human COLO205 cells. The format is functional, cell-based.
Another test has as its system NIH3T3. Description: Cytotoxicity against mouse NIH/3T3 cells. The test is classed as cell-based.
Test [5] deals with COLO 205. Kind of test: Ratio of IC50 for chromomycin to compound for human COLO205 cells. The test is classed as functional.

As usually defined, the IC50 is the midpoint of a concentration-inhibition curve. In the case of `C=COC(=O)CCCCC(=O)O[C@H](C)[C@H](O)C(=O)[C@@H](OC)[C@@H]1Cc2cc3cc(O[C@H]4C[C@@H](O[C@@H]5C[C@@H](O)[C@H](OC)[C@@H](C)O5)[C@H](OC(C)=O)[C@@H](C)O4)c(C)c(O)c3c(O)c2C(=O)[C@H]1O[C@H]1C[C@H](O[C@H]2C[C@H](O[C@H]3C[C@@](C)(O)[C@@H](OC(C)=O)[C@H](C)O3)[C@H](O)[C@@H](C)O2)[C@H](O)[C@@H](C)O1`, the IC50 in the test with A549 was 0.03 µM; in the test with BXPC-3, 0.06 µM; in the test on A2780 [3] it was 0.005 µM; in the test with COLO 205 [4], 0.012 µM; with NIH3T3 it was 1.2 µM. For the same compound, the “Ratio IC50” value in the test with COLO 205 [1] came to 3.2; in the test on A2780 [2], 5; in the test on COLO 205 [5] it was 8.
In the case of `CO[C@H]1[C@H](O)C[C@@H](O[C@@H]2C[C@H](Oc3cc4cc5c(c(O)c4c(O)c3C)C(=O)[C@@H](O[C@H]3C[C@H](O[C@H]4C[C@H](O[C@H]6C[C@@](C)(O)[C@@H](OC(C)=O)[C@H](C)O6)[C@H](O)[C@@H](C)O4)[C@H](O)[C@@H](C)O3)[C@H]([C@H](OC)C(=O)[C@@H](O)[C@@H](C)OC(C)=O)C5)O[C@H](C)[C@H]2OC(C)=O)O[C@@H]1C`, the IC50 with A549 was determined as 0.2 µM; in the test on BXPC-3 it was 0.45 µM; with A2780 [3] it was 0.25 µM; in the test with COLO 205 [4], 0.065 µM; in the test on NIH3T3, 0.8 µM. The “Ratio IC50” value in the test on COLO 205 [1] is 0.34.
For the compound `CCC(=O)O[C@H](C)[C@H](O)C(=O)[C@@H](OC)[C@@H]1Cc2cc3cc(O[C@H]4C[C@@H](O[C@@H]5C[C@@H](O)[C@H](OC)[C@@H](C)O5)[C@H](OC(C)=O)[C@@H](C)O4)c(C)c(O)c3c(O)c2C(=O)[C@H]1O[C@H]1C[C@H](O[C@H]2C[C@H](O[C@H]3C[C@@](C)(O)[C@@H](OC(C)=O)[C@H](C)O3)[C@H](O)[C@@H](C)O2)[C@H](O)[C@@H](C)O1`, the IC50 in the test on A549 was determined as 0.5 µM; with BXPC-3 it was 0.3 µM; with A2780 [3], 0.25 µM; with COLO 205 [4], 0.125 µM; in the test with NIH3T3, 1 µM. The “Ratio IC50” value in the test with COLO 205 [1] is 0.28.
Turning to `CCCC(=O)O[C@H](C)[C@H](O)C(=O)[C@@H](OC)[C@@H]1Cc2cc3cc(O[C@H]4C[C@@H](O[C@@H]5C[C@@H](O)[C@H](OC)[C@@H](C)O5)[C@H](OC(C)=O)[C@@H](C)O4)c(C)c(O)c3c(O)c2C(=O)[C@H]1O[C@H]1C[C@H](O[C@H]2C[C@H](O[C@H]3C[C@@](C)(O)[C@@H](OC(C)=O)[C@H](C)O3)[C@H](O)[C@@H](C)O2)[C@H](O)[C@@H](C)O1`, the IC50 in the test on A549 turned out to be 0.185 µM; with BXPC-3 it was 0.45 µM; in the test on A2780 [3], 0.065 µM; in the test with COLO 205 [4] it was 0.035 µM; in the test with NIH3T3, 0.75 µM. For the same compound, the “Ratio IC50” value in the test on COLO 205 [1] came to 0.45.
As to `CCCCCCCCCC(=O)O[C@H](C)[C@H](O)C(=O)[C@@H](OC)[C@@H]1Cc2cc3cc(O[C@H]4C[C@@H](O[C@@H]5C[C@@H](O)[C@H](OC)[C@@H](C)O5)[C@H](OC(C)=O)[C@@H](C)O4)c(C)c(O)c3c(O)c2C(=O)[C@H]1O[C@H]1C[C@H](O[C@H]2C[C@H](O[C@H]3C[C@@](C)(O)[C@@H](OC(C)=O)[C@H](C)O3)[C@H](O)[C@@H](C)O2)[C@H](O)[C@@H](C)O1`, the IC50 worked out at 0.5 µM in the test on A549; 0.8 µM in the test on BXPC-3; 0.375 µM in the test on A2780 [3]; 0.25 µM in the test on COLO 205 [4]; 1 µM in the test with NIH3T3. For the same compound, in the test on COLO 205 [1], the “Ratio IC50” value is recorded as 0.17.
Take `CO[C@@H]1[C@H](O)C[C@@H](O[C@@H]2C[C@H](Oc3cc4cc5c(c(O)c4c(O)c3C)C(=O)[C@@H](O[C@H]3C[C@@H](O[C@H]4C[C@@H](O[C@H]6C[C@](C)(O)[C@@H](OC(C)=O)[C@H](C)O6)[C@H](O)[C@@H](C)O4)[C@H](O)[C@@H](C)O3)[C@H]([C@H](OC)C(=O)[C@@H](O)[C@@H](C)O)C5)O[C@H](C)[C@@H]2OC(C)=O)O[C@@H]1C` [CHROMOMYCIN A3]: the IC50 with A549 was determined as 0.1 µM; in the test on BXPC-3, 0.13 µM; with A2780 [3], 0.04 µM; in the test on COLO 205 [4], 0.063 µM; with NIH3T3 it was 1 µM.
